Data as given in patent publication US20230233569A1 (Revolution Medicines, Inc., priority 2020, published 2023).

Experiments:
Capan-1 (K-Ras G12V) = assay: CellTiter-Glo cell viability assay, 5-day treatment; assay type: cell-based; details: Homo sapiens, CAPAN-1, 120 h, 5-day treatment; read-out: Capan-1 Cell Viability assay data (K-Ras G12V, IC50)
Procedure, shortened: (§1)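 Compounds were dispensed directly onto seeded cells and incubated for 5 days, then plates were equilibrated to room temperature for about 30 minutes before luminescence reading. Signals were expressed as percent of the mean DMSO control and fitted with a four-parameter logistic curve.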

NCI-H358 (K-Ras G12C) = assay: as above; assay type: cell-based; details: Homo sapiens, NCI-H358, 120 h, 5-day treatment; read-out: H358 Cell Viability assay data (K-Ras G12C, IC50)
Procedure, shortened: as §1

KRAS G12C = KRAS G12C (Homo sapiens, UniProt P01116+P62937, G12C); assay: Disruption of BRAF RBD interaction with Ras (FRET / MOA assay, with Cyclophilin A); assay type: biochemical; details: read-out: KRAS G12C FRET data, IC50
Procedure, shortened: (§2)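 Here, compound titrations (ten points, factor 3, from 30 μM final) act on nucleotide-bound K-Ras and Cyclophilin A, and ternary complex formation disrupts the RAF RBD interaction.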

KRAS G12D = KRAS G12D (Homo sapiens, UniProt P01116+P62937, G12D); assay: as above; assay type: biochemical; details: read-out: KRAS G12D FRET data, IC50
Procedure, shortened: as §2

KRAS G12S = KRAS G12S (Homo sapiens, UniProt P01116+P62937, G12S); assay: as above; assay type: biochemical; details: read-out: KRAS G12S FRET data, IC50
Procedure, shortened: as §2

KRAS G12V = KRAS G12V (Homo sapiens, UniProt P01116+P62937, G12V); assay: as above; assay type: biochemical; details: KRAS G12V; read-out: KRAS G12V FRET data IC50
Procedure, shortened: as §2

KRAS G13C = KRAS G13C (Homo sapiens, UniProt P01116+P62937, G13C); assay: as above; assay type: biochemical; details: read-out: KRAS G13C FRET data, IC50
Procedure, shortened: as §2

KRAS G13D = KRAS G13D (Homo sapiens, UniProt P01116+P62937, G13D); assay: as above; assay type: biochemical; details: KRAS G13D; read-out: KRAS G13D FRET data IC50
Procedure, shortened: as §2

KRAS WT = KRAS WT (Homo sapiens, UniProt P01116+P62937); assay: as above; assay type: biochemical; details: KRAS WT; read-out: KRAS WT FRET data IC50
Procedure, shortened: as §2

NRAS G12C = NRAS G12C (Homo sapiens, UniProt P01111+P62937, G12C); assay: as above; assay type: biochemical; details: NRAS G12C; read-out: NRAS G12C FRET data IC50
KRAS Q61H = KRAS Q61H (Homo sapiens, UniProt P01116+P62937, Q61H); assay: as above; assay type: biochemical; details: KRAS Q61H; read-out: KRAS Q61H FRET data IC50
Procedure, shortened: (§3)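 IC50 reflects compound-driven Ras:Cyclophilin A ternary complex displacing BRAF RBD, read as lowered TR-FRET ratio relative to DMSO after Eu anti-His (10 nM) and APC anti-GST (50 nM) detection for 1.5 h. Prior incubation 3 h, 25° C, with 12.5 nM GMPPNP-loaded Ras, 50 nM BRAF RBD, 25 μM Cyclophilin A; top compound 30 μM.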

NRAS Q61K = NRAS Q61K (Homo sapiens, UniProt P01111+P62937, Q61K); assay: as above; assay type: biochemical; details: NRAS Q61K; read-out: NRAS Q61K FRET data IC50
Procedure, shortened: as §3

NRAS Q61R = NRAS Q61R (Homo sapiens, UniProt P01111+P62937, Q61R); assay: as above; assay type: biochemical; details: NRAS Q61R; read-out: NRAS Q61R FRET data IC50
Procedure, shortened: as §3

NRAS WT = NRAS WT (Homo sapiens, UniProt P01111+P62937); assay: as above; assay type: biochemical; details: NRAS WT; read-out: NRAS WT FRET data IC50
Procedure, shortened: as §3

Chain of KRAS G13C (P01116 1-169 isoform P01116-2 G13C): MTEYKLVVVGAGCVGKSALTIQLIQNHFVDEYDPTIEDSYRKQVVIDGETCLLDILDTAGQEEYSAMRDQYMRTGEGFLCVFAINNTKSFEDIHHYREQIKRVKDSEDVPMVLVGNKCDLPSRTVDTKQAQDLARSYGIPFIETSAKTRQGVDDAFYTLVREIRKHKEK
Chain of KRAS G13C (P62937 whole entry): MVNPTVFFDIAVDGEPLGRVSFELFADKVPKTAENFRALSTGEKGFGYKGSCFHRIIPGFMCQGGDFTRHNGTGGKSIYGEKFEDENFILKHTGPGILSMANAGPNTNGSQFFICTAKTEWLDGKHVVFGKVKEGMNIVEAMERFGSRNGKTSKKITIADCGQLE
Chain of NRAS Q61R (P01111 whole entry Q61R): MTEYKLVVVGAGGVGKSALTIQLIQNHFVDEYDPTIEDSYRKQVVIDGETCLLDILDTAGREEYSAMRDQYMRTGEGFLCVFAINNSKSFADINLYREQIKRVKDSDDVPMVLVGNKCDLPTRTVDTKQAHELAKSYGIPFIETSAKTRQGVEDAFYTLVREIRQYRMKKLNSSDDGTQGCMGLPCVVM
Chain of NRAS Q61R (P62937 whole entry): as the sequence (P62937 whole entry) above
Chain of KRAS G12C (P01116 1-169 isoform P01116-2 G12C): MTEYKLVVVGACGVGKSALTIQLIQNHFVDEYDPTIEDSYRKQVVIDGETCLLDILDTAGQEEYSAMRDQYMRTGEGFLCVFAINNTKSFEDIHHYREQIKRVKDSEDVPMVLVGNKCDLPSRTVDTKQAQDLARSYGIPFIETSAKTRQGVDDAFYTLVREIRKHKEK
Chain of KRAS G12C (P62937 whole entry): as the sequence (P62937 whole entry) above
Chain of NRAS Q61K (P01111 whole entry Q61K): as the sequence (P01111 whole entry Q61R) above, with R61K counted along it
Chain of NRAS Q61K (P62937 whole entry): as the sequence (P62937 whole entry) above
Chain of KRAS WT (P01116 1-169 isoform P01116-2 limits assumed): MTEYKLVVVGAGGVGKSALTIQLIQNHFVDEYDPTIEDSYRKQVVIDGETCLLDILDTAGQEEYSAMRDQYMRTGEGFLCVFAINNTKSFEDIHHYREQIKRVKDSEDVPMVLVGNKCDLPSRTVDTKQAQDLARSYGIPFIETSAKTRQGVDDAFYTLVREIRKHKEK
Chain of KRAS WT (P62937 whole entry): as the sequence (P62937 whole entry) above
Chain of KRAS Q61H (P01116 1-169 isoform P01116-2 Q61H limits assumed): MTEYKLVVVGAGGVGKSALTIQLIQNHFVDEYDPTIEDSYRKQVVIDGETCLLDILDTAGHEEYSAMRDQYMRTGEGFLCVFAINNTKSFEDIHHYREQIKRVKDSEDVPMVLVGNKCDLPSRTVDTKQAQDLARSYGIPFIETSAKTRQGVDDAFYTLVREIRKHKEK
Chain of KRAS Q61H (P62937 whole entry): as the sequence (P62937 whole entry) above
Chain of KRAS G12D (P01116 1-169 isoform P01116-2 G12D limits assumed): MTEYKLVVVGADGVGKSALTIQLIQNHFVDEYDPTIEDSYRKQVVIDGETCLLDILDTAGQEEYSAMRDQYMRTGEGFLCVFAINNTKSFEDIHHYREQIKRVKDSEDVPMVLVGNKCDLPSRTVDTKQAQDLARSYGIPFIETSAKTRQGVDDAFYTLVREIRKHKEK
Chain of KRAS G12D (P62937 whole entry): as the sequence (P62937 whole entry) above
Chain of NRAS G12C (P01111 whole entry G12C): as the sequence (P01111 whole entry Q61R) above, with G12C, R61Q counted along it
Chain of NRAS G12C (P62937 whole entry): as the sequence (P62937 whole entry) above
Chain of KRAS G13D (P01116 1-169 isoform P01116-2 G13D limits assumed): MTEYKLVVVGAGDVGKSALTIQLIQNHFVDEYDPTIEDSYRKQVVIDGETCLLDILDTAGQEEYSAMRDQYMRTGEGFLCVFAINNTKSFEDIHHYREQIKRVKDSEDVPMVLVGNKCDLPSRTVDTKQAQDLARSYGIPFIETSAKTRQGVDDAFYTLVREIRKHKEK
Chain of KRAS G13D (P62937 whole entry): as the sequence (P62937 whole entry) above
Chain of NRAS WT (P01111 whole entry): as the sequence (P01111 whole entry Q61R) above, with R61Q counted along it
Chain of NRAS WT (P62937 whole entry): as the sequence (P62937 whole entry) above
Chain of KRAS G12S (P01116 1-169 isoform P01116-2 G12S limits assumed): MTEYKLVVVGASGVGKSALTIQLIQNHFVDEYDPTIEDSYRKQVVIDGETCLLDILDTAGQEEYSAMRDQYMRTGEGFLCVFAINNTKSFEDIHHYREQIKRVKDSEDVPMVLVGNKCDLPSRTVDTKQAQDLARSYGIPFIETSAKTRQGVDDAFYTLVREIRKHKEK
Chain of KRAS G12S (P62937 whole entry): as the sequence (P62937 whole entry) above
Chain of KRAS G12V (P01116 1-169 isoform P01116-2 G12V limits assumed): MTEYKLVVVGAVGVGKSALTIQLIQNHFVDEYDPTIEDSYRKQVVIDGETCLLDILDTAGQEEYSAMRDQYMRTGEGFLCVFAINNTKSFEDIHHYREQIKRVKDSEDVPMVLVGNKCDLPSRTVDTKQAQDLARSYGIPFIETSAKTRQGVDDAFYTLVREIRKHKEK
Chain of KRAS G12V (P62937 whole entry): as the sequence (P62937 whole entry) above

SMILES | IC50 (Capan-1 (K-Ras G12V)) | IC50 (NCI-H358 (K-Ras G12C)) | IC50 (KRAS G12C) | IC50 (KRAS G12D) | IC50 (KRAS G12S) | IC50 (KRAS G12V) | IC50 (KRAS G13C) | IC50 (KRAS G13D) | IC50 (KRAS WT) | IC50 (NRAS G12C) | IC50 (KRAS Q61H) | IC50 (NRAS Q61K) | IC50 (NRAS Q61R) | IC50 (NRAS WT)
CCn1c(-c2cccnc2[C@H](C)OC)c2c3cc(ccc31)-c1csc(n1)C[C@H](NC(=O)[C@H](C(C)C)N(C)C(=O)N1C3CC1CS(=O)(=O)C3)C(=O)N1CCC[C@H](N1)C(=O)OCC(C)(C)C2 [Example A496] | 100 to 1000 nM | 100 to 1000 nM | 100 to 1000 nM | 1000 to 10000 nM | 1000 to 10000 nM | 100 to 1000 nM | 1000 to 10000 nM | 1000 to 10000 nM | 100 to 1000 nM | 100 to 1000 nM | 100 to 1000 nM | 100 to 1000 nM | 1000 to 10000 nM | 100 to 1000 nM
CCn1c(-c2cccnc2[C@H](C)OC)c2c3cc(ccc31)-c1csc(n1)C[C@H](NC(=O)[C@H](C(C)C)N(C)C(=O)N1C[C@H]3CN(C)C[C@H]31)C(=O)N1CCC[C@H](N1)C(=O)OCC(C)(C)C2 [Example A497] | 100 to 1000 nM | 100 to 1000 nM | 100 to 1000 nM | 1000 to 10000 nM | 1000 to 10000 nM | 1000 to 10000 nM | 100 to 1000 nM | 1000 to 10000 nM | 1000 to 10000 nM | 100 to 1000 nM | 100 to 1000 nM | 100 to 1000 nM | 1000 to 10000 nM | 100 to 1000 nM
CCn1c(-c2cccnc2[C@H](C)OC)c2c3cc(ccc31)-c1csc(n1)C[C@H](NC(=O)[C@H](C(C)C)N(C)C(=O)N1CCCC13CCN(C)CC3)C(=O)N1CCC[C@H](N1)C(=O)OCC(C)(C)C2 [Example A498] | 100 to 1000 nM | 10 to 100 nM | 10 to 100 nM | 100 to 1000 nM | 10 to 100 nM | 100 to 1000 nM | 100 to 1000 nM | 100 to 1000 nM | 10 to 100 nM | 10 to 100 nM | 10 to 100 nM | 100 to 1000 nM | 100 to 1000 nM | 10 to 100 nM
CCn1c(-c2cccnc2[C@H](C)OC)c2c3cc(ccc31)-c1csc(n1)C[C@H](NC(=O)[C@H](C(C)C)N(C)C(=O)N1CC3(CN(C)CCO3)C1)C(=O)N1CCC[C@H](N1)C(=O)OCC(C)(C)C2 [Example A499] | 10 to 100 nM | 10 to 100 nM | 100 to 1000 nM | 1000 to 10000 nM | 1000 to 10000 nM | 1000 to 10000 nM | 1000 to 10000 nM | 1000 to 10000 nM | 1000 to 10000 nM | 100 to 1000 nM | 100 to 1000 nM | 100 to 1000 nM | 100 to 1000 nM | 1000 to 10000 nM
CCn1c(-c2cccnc2[C@H](C)OC)c2c3cc(ccc31)-c1csc(n1)C[C@H](NC(=O)[C@H](C(C)C)N(C)C(=O)N1CC[C@@H]1CN(C)C)C(=O)N1CCC[C@H](N1)C(=O)OCC(C)(C)C2 [Example A502] | 100 to 1000 nM | 10 to 100 nM | 100 to 1000 nM | 100 to 1000 nM | 100 to 1000 nM | 1000 to 10000 nM | 100 to 1000 nM | 100 to 1000 nM | 100 to 1000 nM | 100 to 1000 nM | 10 to 100 nM | 100 to 1000 nM | 100 to 1000 nM | 100 to 1000 nM
CCn1c(-c2cccnc2[C@H](C)OC)c2c3cc(ccc31)-c1csc(n1)C[C@H](NC(=O)[C@H](C(C)C)N(C)C(=O)N(C)C[C@@H]1CCCN1C)C(=O)N1CCC[C@H](N1)C(=O)OCC(C)(C)C2 [Example A504] | 100 to 1000 nM | 100 to 1000 nM | 100 to 1000 nM | 1000 to 10000 nM | 1000 to 10000 nM | 1000 to 10000 nM | 100 to 1000 nM | 100 to 1000 nM | 100 to 1000 nM | 100 to 1000 nM | 100 to 1000 nM | 1000 to 10000 nM | 1000 to 10000 nM | 100 to 1000 nM
